How the values were obtained:
[1] = Phase I metabolic stability in human liver microsomes (+/- NADPH, LC/MS); format: in vitro ADME; details: for % Compound Remaining (mean), NADPH: with NADPH; for % Compound Remaining (mean), -NADPH: without NADPH
Method: The fluorinated compounds were evaluated under the more metabolically demanding conditions of a Phase-1-type microsomal analysis. […] For this initial comparison, the 7-fluoro-dithiopomaldiomide 30 was selected owing to its combination of favorable biological parameters and general ease of synthesis. The reactions on each sample were initiated by addition of human liver microsomes in the presence or absence of an NADPH regenerating system, and compound disappearance was monitored via LC/MS (FIG. 14, Table 10).

[2] = tested on: LPS-induced nitrite in RAW 264.7 cells; assay: LPS-induced nitrite production in RAW 264.7 cells (Griess reagent / fluorometric kit); format: cell-based, mouse; details: for Nitrite, % Change versus Control (± s.e.m.): 10 uM; for nitrite level, % of vehicle control: LPS-challenged RAW 264.7 cells, percentage of vehicle control value (control = 100%), mean ± S.E.M., n = 3
Method: Nitrite ion detection in drug treated […] cell culture media: To measure the levels of nitrite ion NO2—) the Griess Reagent System (Promega, Madison, WI, Cat #G2930) was utilized. The protocol followed was that recommended by the manufacturer. In brief a NO2— ion standard curve was prepared in culture media of the same composition to that used for the cell culture study. The concentration range of the standard curve was from 1.5 µM to 100 µM. Equal volumes (50 μL) of standards and unknown samples were added to clear 96 well plates in duplicate. Then 50 μL of sulfanilamide solution was added to each well and the plate was covered and incubated in the dark for 10 min. After the incubation period 50 μL of N-1-napthylethylenediamine dihydrochloride solution was added to each well and the plate was incubated in dark for a further 10 min. After this incubation, the plate was read at 550 nm on a SPECTRAmax PLUS plate reader and the absorbances were used to generate a NO2— standard curve and the NO2— ion levels of the unknown samples are determined using SoftMax Pro V5, Molecular Devices.
Most neurons are highly vulnerable to RNS and ROS. Nitric oxide (NO) is one of RNSs, which is very short lived and cannot be readily measured. However, nitrite is a stable end product of nitric oxide metabolism. Therefore, nitrite acts as a surrogate measure of NO. The Griess Reagent System (Promega Corporation, Madison, WI) can be applied to measure nitrite levels in culture media following the manufacturer's protocol, and this system was used in the present study as it is a more sensitive assay compared to quantifying actions on TNF-α by ELISA assay. […] This challenge induces high level of TNF-α protein accompanied by a robust generation of nitrite.
(§1) Cells were propagated as described by ATCC guidelines.

TNF-α = assay: LPS-induced TNF-α production in RAW 264.7 cells (ELISA); format: cell-based, mouse; details: for TNF-a, % Change versus Control (± s.e.m.): 10 uM; for TNF-α % Δ: LPS-challenged RAW 264.7 cells, percentage of vehicle control value (control = 100%), mean ± S.E.M., n = 3
Method: Enzyme-linked immunosorbent assay for TNF-α protein: Media TNF-α levels were measured by use of the Biolegend ELISA MAX Set Delux ELISA (#430904). The protocol used was that recommended by the manufacturer. In brief, a day prior to performing the assay, a 96 well plate was coated with a capture antibody directed against TNF-α. The following day the assay plate was washed and blocked with the kit blocking agent for 1 h while being mixed on a plate shaker at 200 rpm (all incubations were mixed at 200 rpm unless stated otherwise). A TNF-α protein standard curve was prepared in the assay diluent following the kit instructions and unknown media samples were likewise diluted in the same assay diluent. After blocking, the plate was washed and then both the standards and unknown media samples were added to the plate in duplicate. The standards and unknown samples were incubated for 2 h. After the incubation, the plate was washed and then the biotin labeled detection antibody was added to each well and incubated for a further 1 h. After this incubation, the avidin-HRP conjugate complex was added to each well and incubated for 30 min. The plate was washed and the chromogenic substrate 3,3′,5,5′-tetramethylbenzidine solution was added to each well. At this point the plate was covered and incubated in the dark for 15 min, with no mixing. After 15 min the chromogenic reaction was stopped by the addition of 2 N H2SO4 and the absorbance was read at 450 nm and for background subtractions at 570 nm, on a SPECTRAmax PLUS plate reader. The absorbances were used to generate a TNF-α a protein standard curve and the protein levels in the unknown samples were determined using SoftMax Pro V5, Molecular Devices.
as §1

RAW 264.7 cells = assay: Cell viability of drug treated RAW 264.7 cells (CellTiter 96 AQueous One, MTS); details: for Viability, % Change versus Control (± s.e.m.): 10 uM; for Cell Viability % Δ: RAW 264.7 cells, percentage of vehicle control value, mean ± S.E.M., n = 3
Method: Assessments of drug anti-TNF-α and nitric oxide generation in RAW 264.7 cells: RAW 264.7 cells were purchased from ATCC Manassas, VA, USA). The cells were grown in DMEM media (Invitrogen, DMEM, high glucose, GlutaMAX Supplement, pyruvate, #10569-010) supplemented with 10% FBS (Invitrogen, Fetal Bovine Serum, qualified, heat inactivated, #16140-071) with penicillin and streptomycin (Invitrogen, Penicillin-Streptomycin (10,000 U/mL), #15140-122) and were maintained at 37 C and 5% CO2. The cells were grown to 75%-85% confluence on 10 cm plates (corning-Fal-con, #353003) following the protocol described by ATTC. to assess for drug effects on LPS-induced markers of inflammation, namely TNF-α protein and nitrite ion levels (NO2, a stable end-product of nitric oxide metabolism) cells were seeded into 24 well (VWR, #10062-896) at a density of 200×10^3 cells per well. On each plate there was one blank well where no cells were added yet culture media in the well was treated similarly to wells with cells (n=1). The blank well media was used for background subtraction for various downstream assays. twenty-four hours after seeding the plate the seeding media was replaced with fresh media. Two hours after this the cells were exposed to a range of concentrations of drug test-compound(s) dissolved in 100% tissue culture grade dimethyl sjloxide (DMSO, SIGMA #D2650). Drug stocks were prepared in a 200 times more concentrated stock in DMSO. The final concentration of DMSO added to the cells was 0.5%. The effects of each concentration of drug were assessed in 4 wells per concentration in the 24 well plate (n=3 #-4). On each plate one set of wells were assigned as drug-vehicle control (i.e. DMSO), one test compound was assessed on one 24 well plate. […] One hour after the drugs were added the cells were challenged with lipopolysaccharide (LPS, SIGMA, serotype 055:B5) at a final concentration of 60 ng/ml. Twenty to twenty-four hours after the cells were challenged with LPS the culture media was collected and utilized for the measurement of markers of inflammation.
Cellular viability assessment of drug treated RAW 264.7 cells: RAW 264.7 cell viability was determined by use of the CellTiter 96 AQueous One Solution Cell Proliferation Assay (Promega, Madison, WI). Changes in cellular health status were determined by use of indirect measures related to the formation of a colored tetrazolium dye product that can be measured spectrophotometrically at 490 nm. An increase in absorbance at 490 nm is indicative of an increase in numbers of healthy cells; similarly a reduction in absorbance is indicative of a reduction of healthy cells. After the culture media was harvested for use in TNF-α and NO2— ion assays, the media was replaced with 0.5 mL of fresh media plus 100 μL of the cell viability reaction mixture. After a 20-30 min incubation at 37° C. with 5% CO2 the absorbance at 490 nm was obtained using an infinite M200 PRO plate reader (TECAN, USA).
Statistical analyses for RAW-derived assays: Data are expressed as a percentage change from the DMSO-vehicle control measurements. Measurements are expressed as mean±standard errors, where the n number represents the number of wells in a 24 well plate. Due to the presence of one blank control well on each plate, for some drug concentrations the n number is 3 # and not 4. Statistical comparisons were undertaken by use of a One-Way ANOVA with appropriate Bonferroni corrections for multiple comparisons, as required (GraphPad InStat Version 3.05). P values of <0.05 are considered to be of statistical significance.
RAW 264.7 cell culture: RAW 264.7 mouse cells were purchased from ATCC (Manassas, VA, USA) and grown in DMEM media supplemented with 10% FCS, penicillin 100 U/ml and streptomycin 100 μg/ml (ThermoFisher Scientific, Asheville, NC, USA). The cells were maintained at 37° C. and 5% CO2.

[3] = molecular target: cereblon (CRBN/DDB1-CUL4A-Rbx1 complex) / BRD3 (Homo sapiens (Human), UniProt Q96SW2); assay: Cereblon/BRD3 binding assay (AlphaScreen / FRET); details: cereblon/BRD3 binding FRET assay
Sequence of cereblon (CRBN/DDB1-CUL4A-Rbx1 complex) / BRD3 (Q96SW2 whole entry): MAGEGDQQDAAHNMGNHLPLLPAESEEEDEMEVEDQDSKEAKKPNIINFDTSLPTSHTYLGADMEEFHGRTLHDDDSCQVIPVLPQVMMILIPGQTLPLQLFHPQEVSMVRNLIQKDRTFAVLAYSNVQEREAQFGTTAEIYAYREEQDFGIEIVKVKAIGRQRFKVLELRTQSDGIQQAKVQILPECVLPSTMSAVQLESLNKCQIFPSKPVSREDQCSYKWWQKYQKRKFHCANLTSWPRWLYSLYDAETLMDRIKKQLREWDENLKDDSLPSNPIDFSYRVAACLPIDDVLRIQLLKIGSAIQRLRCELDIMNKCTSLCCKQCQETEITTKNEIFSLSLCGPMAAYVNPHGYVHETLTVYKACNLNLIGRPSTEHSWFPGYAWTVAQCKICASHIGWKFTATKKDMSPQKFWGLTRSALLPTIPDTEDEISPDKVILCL
Sequence of cereblon (CRBN/DDB1-CUL4A-Rbx1 complex) / BRD3 (Q16531 whole entry partner): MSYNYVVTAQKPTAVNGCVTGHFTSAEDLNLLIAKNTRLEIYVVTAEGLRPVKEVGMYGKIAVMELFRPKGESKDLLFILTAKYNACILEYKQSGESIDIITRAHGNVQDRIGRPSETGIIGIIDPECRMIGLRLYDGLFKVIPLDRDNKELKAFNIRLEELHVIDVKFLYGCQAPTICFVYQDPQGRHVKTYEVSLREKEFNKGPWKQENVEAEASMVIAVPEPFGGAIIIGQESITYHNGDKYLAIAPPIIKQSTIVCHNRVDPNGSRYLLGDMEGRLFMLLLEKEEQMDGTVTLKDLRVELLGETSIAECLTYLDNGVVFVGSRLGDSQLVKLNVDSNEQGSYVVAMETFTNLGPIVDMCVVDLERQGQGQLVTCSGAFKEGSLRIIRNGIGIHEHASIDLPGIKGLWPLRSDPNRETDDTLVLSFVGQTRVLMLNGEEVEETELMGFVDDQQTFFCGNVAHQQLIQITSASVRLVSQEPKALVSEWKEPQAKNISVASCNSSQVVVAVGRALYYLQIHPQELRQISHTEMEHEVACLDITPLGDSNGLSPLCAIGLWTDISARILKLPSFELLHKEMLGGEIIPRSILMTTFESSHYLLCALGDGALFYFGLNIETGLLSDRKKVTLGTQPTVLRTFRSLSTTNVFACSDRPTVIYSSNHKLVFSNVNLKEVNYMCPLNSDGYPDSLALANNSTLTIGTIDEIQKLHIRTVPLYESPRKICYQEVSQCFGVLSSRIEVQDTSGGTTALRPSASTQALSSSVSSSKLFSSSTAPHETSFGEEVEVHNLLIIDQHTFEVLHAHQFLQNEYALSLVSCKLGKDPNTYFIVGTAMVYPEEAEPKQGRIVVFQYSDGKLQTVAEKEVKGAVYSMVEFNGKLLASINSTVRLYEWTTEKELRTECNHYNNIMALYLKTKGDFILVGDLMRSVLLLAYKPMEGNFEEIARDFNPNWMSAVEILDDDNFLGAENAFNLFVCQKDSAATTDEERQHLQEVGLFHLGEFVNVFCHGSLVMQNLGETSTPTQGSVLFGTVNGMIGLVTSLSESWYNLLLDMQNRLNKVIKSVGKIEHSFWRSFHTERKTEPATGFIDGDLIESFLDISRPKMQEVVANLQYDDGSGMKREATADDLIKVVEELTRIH
Sequence of cereblon (CRBN/DDB1-CUL4A-Rbx1 complex) / BRD3 (Q13619 whole entry partner): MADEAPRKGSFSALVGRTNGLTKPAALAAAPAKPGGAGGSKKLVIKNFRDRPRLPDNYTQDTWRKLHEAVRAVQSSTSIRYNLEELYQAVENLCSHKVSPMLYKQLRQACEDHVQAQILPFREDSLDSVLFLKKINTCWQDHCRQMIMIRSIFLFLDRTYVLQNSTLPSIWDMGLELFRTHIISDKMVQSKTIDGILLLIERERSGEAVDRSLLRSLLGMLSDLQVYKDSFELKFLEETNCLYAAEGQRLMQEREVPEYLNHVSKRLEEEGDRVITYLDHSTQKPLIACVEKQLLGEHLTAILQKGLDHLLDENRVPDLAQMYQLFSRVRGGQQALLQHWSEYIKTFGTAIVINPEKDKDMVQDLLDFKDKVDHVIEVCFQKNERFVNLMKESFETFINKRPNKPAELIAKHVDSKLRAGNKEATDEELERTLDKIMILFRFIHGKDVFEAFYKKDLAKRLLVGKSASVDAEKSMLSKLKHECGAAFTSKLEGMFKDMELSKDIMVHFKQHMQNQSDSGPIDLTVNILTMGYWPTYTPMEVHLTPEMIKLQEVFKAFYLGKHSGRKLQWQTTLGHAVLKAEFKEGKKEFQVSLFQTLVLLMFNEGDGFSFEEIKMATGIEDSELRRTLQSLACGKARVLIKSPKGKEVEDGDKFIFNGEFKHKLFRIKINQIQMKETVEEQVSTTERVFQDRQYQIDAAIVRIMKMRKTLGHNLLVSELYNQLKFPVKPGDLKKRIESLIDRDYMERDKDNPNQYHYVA
Sequence of cereblon (CRBN/DDB1-CUL4A-Rbx1 complex) / BRD3 (P62877 whole entry partner): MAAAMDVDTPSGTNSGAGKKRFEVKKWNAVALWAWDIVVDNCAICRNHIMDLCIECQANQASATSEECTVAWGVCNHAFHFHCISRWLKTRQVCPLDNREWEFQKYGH
Method: After 30 min of incubation with shaking at room temperature, AlphaLISA anti-FLAG Acceptor and Alpha Glutathione Donor beads (PerkinElmer) were sequentially added and then incubated for 1 hr at room temperature for each of the added chemicals. Alpha counts were thereafter read on a Synergy Neo2 (BioTek) for the analysis. Relative activity or inhibition was calculated as the highest value, which was set to 100%, and the lowest value was set to 0% after subtraction of the “blank value” from all readings.
After 30 min of incubation with shaking at room temperature, AlphaLISA anti-FLAG Acceptor and Alpha Glutathione Donor beads (PerkinElmer) were sequentially added and then incubated for 1 h at room temperature for each of the added chemicals. Alpha counts were thereafter read on a Synergy Neo2 (BioTek) for the analysis. The relative activity of the alpha signal was calculated after subtraction of the “blank value” from all readings, and the value of the vehicle group was then set as 100%.

SALL4 = SALL4 (Homo sapiens (Human), UniProt Q9UJQ4); assay: SALL4 expression in Tera-1 cells (Western blot); format: cell-based
Method: (§2) For Western blot analysis, total proteins were extracted using RIPA buffer (ThermoFisher Scientific, Waltham, MA) containing Halt Protease Inhibitor Cocktail (ThermoFisher Scientific). […] After incubation at 4° C. overnight, the following HRP conjugated secondary antibodies were used: (i) goat anti-rabbit IgG (ThermoFisher Scientific) for ikaros and aiolos, and (ii) goat anti-mouse IgG (ThermoFisher Scientific) for SALL4 and GAPDH. […] Antigen-antibody complexes were detected using enhanced chemiluminescence (Thermo, iBright CL1500).
(§3) Specifically, MM1.S cells were obtained from ATCC (Manassas, VA, USA), grown in RPMI media supplemented with 10% FBS, penicillin 100 U/mL, and streptomycin […], and maintained at 37° C. and 5% CO2.
as §2, with “MA, USA)” for “MA)”, “Scientific). Thereafter, the proteins were separated by gel electrophoresis and then transferred to polyvinylidene difluoride (PVDF) membranes (ThermoFisher Scientific), as described previously.” for “Scientific).”, “HRP-conjugated” for “HRP conjugated”, “Ikaros” for “ikaros”, “Aiolos,” for “aiolos,”, “(ThermoFisher Scientific,” for “(Thermo,”

Aiolos = Aiolos (Homo sapiens (Human), UniProt Q9UKT9); assay: Aiolos degradation in MM1.S cells (Western blot); format: cell-based; details: 1 μM, relative to GAPDH
Method: as §2, §3
(§4) For Western blot analysis, total proteins were extracted using RIPA buffer (ThermoFisher Scientific, Waltham, MA, USA) containing Halt Protease Inhibitor Cocktail (ThermoFisher Scientific). Thereafter, the proteins were separated by gel electrophoresis and then transferred to polyvinylidene difluoride (PVDF) membranes (ThermoFisher Scientific), as described previously. […] Antigen-antibody complexes were detected using enhanced chemiluminescence (ThermoFisher Scientific, iBright CL1500).

Ikaros = Ikaros (Homo sapiens (Human), UniProt Q13422); assay: Ikaros degradation in MM1.S cells (Western blot); format: cell-based; details: 1 μM, relative to GAPDH
Method: as §2, §3, §4

[4] = LPS-activated RAW 264.7 cells (Table 9)

## Nc1ccc(F)c2c1C(=S)N(C1CCC(=S)NC1=O)C2=O (centres unmarked) [drawing 96]
[1]; human liver microsomes, 0 min
  % Compound Remaining (mean), NADPH: 100%
  % Compound Remaining (mean), -NADPH: 100%
[1]; human liver microsomes, 30 min
  % Compound Remaining (mean), NADPH: 68%
  % Compound Remaining (mean), -NADPH: 71%
[1]; human liver microsomes, 60 min
  % Compound Remaining (mean), NADPH: 48%
  % Compound Remaining (mean), -NADPH: 53%

## 2-(2,6-dioxopiperidin-3-yl)-4-fluoro-7-nitroisoindoline-1,3-dione [Compound 23]
[2]; LPS-activated RAW 264.7 cells
  Nitrite, % Change versus Control (± s.e.m.): 56.8 ± 2.2%
TNF-α; LPS-activated RAW 264.7 cells
  TNF-a, % Change versus Control (± s.e.m.): 86.0 ± 4.4%
RAW 264.7 cells; LPS-activated RAW 264.7 cells
  Viability, % Change versus Control (± s.e.m.): 104.9 ± 2.1%

## Nc1cccc2c1C(=O)N(C1CCC(=O)NC1=O)C2=O (centres unmarked)
[2]; [4]
  Nitrite, % Change versus Control (± s.e.m.): 91 ± 1.6 (N.S.) %
TNF-α; [4]
  TNF-a, % Change versus Control (± s.e.m.): 95 ± 4.8 (N.S.) %
RAW 264.7 cells; [4]
  Viability, % Change versus Control (± s.e.m.): 95 ± 1.2 (N.S.) %

## Nc1c(F)ccc2c1C(=O)N(C1CCC(=O)NC1=O)C2=O (centres unmarked) [drawing 93]
[2]; [4]
  Nitrite, % Change versus Control (± s.e.m.): 100 ± 5.5 (N.S.) %
TNF-α; [4]
  TNF-a, % Change versus Control (± s.e.m.): 93 ± 4.1 (N.S.) %
RAW 264.7 cells; [4]
  Viability, % Change versus Control (± s.e.m.): 90 ± 2.6 (N.S.) %

## Nc1ccc(F)c2c1C(=O)N(C1CCC(=O)NC1=O)C2=O (centres unmarked) [drawing 91]
[2]; [4]
  Nitrite, % Change versus Control (± s.e.m.): 86 ± 3.9 (N.S.) %
TNF-α; [4]
  TNF-a, % Change versus Control (± s.e.m.): 98 ± 1.5 (N.S.) %
RAW 264.7 cells; [4]
  Viability, % Change versus Control (± s.e.m.): 102 ± 0.8 (N.S.) %

## CC1(C)[C@H]2CC[C@@H](CN3C(=O)c4c(F)c(F)c(F)c(F)c4C3=O)[C@@H]1C2 [Compound 13, 2-(((1S,2R,5S)-6,6-dimethylbicyclo[3.1.1]heptan-2-yl)methyl)-4,5,6,7-tetrafluoroisoindoline-1,3-dione]
[2]; 1 μM
  nitrite level, % of vehicle control: 31 ± 3%
[2]; 1 μM, tetrafluoro vs corresponding difluoro or stereoisomer
  nitrite inhibitory activity (comparison in words): more potent nitrite inhibitory activity
TNF-α; 1 μM
  TNF-α % Δ: 62 ± 3%
RAW 264.7 cells; 1 μM
  Cell Viability % Δ: 78 ± 3%

## CC1(C)[C@H]2CC[C@@H](CN3C(=O)c4c(F)ccc(F)c4C3=O)[C@@H]1C2 [Compound 19, 2-(((1S,2R,5S)-6,6-dimethylbicyclo[3.1.1]heptan-2-yl)methyl)-4,7-difluoroisoindoline-1,3-dione]
[2]; 1 μM
  nitrite level, % of vehicle control: 79 ± 2%
[2]; 10 μM
  nitrite level, % of vehicle control: 63 ± 3%
[2]; 30 μM
  nitrite level, % of vehicle control: 22 ± 1%
TNF-α; 1 μM
  TNF-α % Δ: 102 ± 2%
TNF-α; 10 μM
  TNF-α % Δ: 82 ± 2%
RAW 264.7 cells; 1 μM
  Cell Viability % Δ: 98 ± 2%
RAW 264.7 cells; 10 μM
  Cell Viability % Δ: 93 ± 4%
RAW 264.7 cells; 30 μM
  Cell Viability % Δ: 67 ± 3%

## Nc1c(F)ccc2c1C(=S)N(C1CCC(=S)NC1=O)C2=O (centres unmarked) [drawing 94]
[2]; [4]
  Nitrite, % Change versus Control (± s.e.m.): 40 ± 1.2 (N.S.) $ %
TNF-α; [4]
  TNF-a, % Change versus Control (± s.e.m.): 114 ± 3.9 (N.S.) %
RAW 264.7 cells; [4]
  Viability, % Change versus Control (± s.e.m.): 92 ± 1.6 (N.S.) %

## Nc1cccc2c1C(=O)N(C1CCC(=O)NC1=O)C2=O (racemic) [Pomalidomide, pomalidomide, reference compound]
[3]
  cereblon binding (in words): potently bind to cereblon
SALL4; Tera-1 cells, 1 μM
  SALL4 expression levels: induced a decrease in expression levels of SALL4
SALL4; human Tera-1 cells, 0.01, 0.1, 1 μM, relative to GAPDH
  SALL4 levels: dramatically lowerered
Aiolos
  Aiolos levels: dramatically lowerered
Ikaros
  Ikaros levels: dramatically lowerered

## Nc1cccc2c1C(=S)N(C1CCC(=S)NC1=O)C2=O (centres unmarked) [drawing 90]
[2]; [4]
  Nitrite, % Change versus Control (± s.e.m.): 43 ± 1.0 (N.S.) $ %
TNF-α; [4]
  TNF-a, % Change versus Control (± s.e.m.): 113 ± 5.4 (N.S.) %
RAW 264.7 cells; [4]
  Viability, % Change versus Control (± s.e.m.): 92 ± 1.8 (N.S.) %

## Nc1cccc2c1C(=S)N(C1CCC(=S)NC1=O)C2=O (centres unmarked) [4′, 3,6′-dithiopomalidomide, reference compound]
[2]; six-compound pomalidomide grouping, RAW cell assay, FIGS. 12-13
  nitrite levels (in words): reduced nitrite levels significantly
[1]; after 1 hr incubation, human liver microsomes
  material consumed: more than half
[1]; with and without NADPH
  stability in human liver microsomes (in words): moderate level of instability

— US20260055061A1, “HALOPHTHALIMIDE COMPOUNDS AND METHODS OF USE AGAINST TBI, INFLAMMATORY DISORDER, AUTOIMMUNE DISORDER, NEURODEGENERATIVE DISEASE OR VIRAL INFECTION” (The United States of America, as represented by the …, priority 2022, published 2026)
